# Results taken from article PMC8143083, “Effective Activation of BKCa Channels by QO-40 (5-(Chloromethyl)-3-(Naphthalen-1-yl)-2-(Trifluoromethyl)Pyrazolo [1,5-a]pyrimidin-7(4H)-one), Known to Be an Opener of KCNQ2/Q3 Channels” (Pharmaceuticals, 2021).
# Biological target: T1, α-hSlo (BKCa channel α-subunit) (Homo sapiens, UniProt Q12791)
# T1 construct: gene KCNMA1; α-hSlo expressed in HEK293T cells
# Experiment: patch clamp of α-hSlo-expressing HEK293T cells (Figure S1)
# Assay type: cell-based
# T1 sequence (Q12791 whole entry): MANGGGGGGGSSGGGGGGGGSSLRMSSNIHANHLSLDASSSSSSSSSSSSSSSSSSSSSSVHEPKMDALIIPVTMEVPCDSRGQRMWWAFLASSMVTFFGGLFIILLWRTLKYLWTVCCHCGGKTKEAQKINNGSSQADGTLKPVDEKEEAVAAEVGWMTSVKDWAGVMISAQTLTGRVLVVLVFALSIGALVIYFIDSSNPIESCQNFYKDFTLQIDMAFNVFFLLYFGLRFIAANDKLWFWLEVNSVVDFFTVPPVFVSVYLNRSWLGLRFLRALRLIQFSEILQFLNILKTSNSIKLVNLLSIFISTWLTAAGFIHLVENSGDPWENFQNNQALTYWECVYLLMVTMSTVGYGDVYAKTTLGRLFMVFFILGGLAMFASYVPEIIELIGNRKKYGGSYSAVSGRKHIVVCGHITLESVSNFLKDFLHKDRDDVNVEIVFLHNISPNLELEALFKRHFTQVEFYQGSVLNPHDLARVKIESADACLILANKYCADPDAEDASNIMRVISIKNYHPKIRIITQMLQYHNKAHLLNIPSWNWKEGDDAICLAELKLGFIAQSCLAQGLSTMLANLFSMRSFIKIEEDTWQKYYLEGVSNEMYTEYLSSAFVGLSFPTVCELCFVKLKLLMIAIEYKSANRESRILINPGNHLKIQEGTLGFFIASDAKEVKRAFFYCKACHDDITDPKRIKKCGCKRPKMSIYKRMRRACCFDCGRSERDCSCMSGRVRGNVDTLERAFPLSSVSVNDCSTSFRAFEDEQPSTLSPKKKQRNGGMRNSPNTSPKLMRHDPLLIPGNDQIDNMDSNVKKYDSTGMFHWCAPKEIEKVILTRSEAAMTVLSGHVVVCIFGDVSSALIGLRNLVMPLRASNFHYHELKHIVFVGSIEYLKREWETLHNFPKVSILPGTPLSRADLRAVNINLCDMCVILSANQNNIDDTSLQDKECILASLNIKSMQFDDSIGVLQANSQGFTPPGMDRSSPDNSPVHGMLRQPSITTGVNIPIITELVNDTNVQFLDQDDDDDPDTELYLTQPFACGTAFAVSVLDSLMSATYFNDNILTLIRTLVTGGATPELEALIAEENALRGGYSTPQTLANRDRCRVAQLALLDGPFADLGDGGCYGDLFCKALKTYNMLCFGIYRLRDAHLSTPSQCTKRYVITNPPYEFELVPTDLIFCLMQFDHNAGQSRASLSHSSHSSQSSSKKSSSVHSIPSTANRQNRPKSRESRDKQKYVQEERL
smiles,measurement,value
"O=c1cc(CCl)nc2c(-c3cccc4ccccc34)c(C(F)(F)F)[nH]n12 [QO-40, 5-(chloromethyl)-3-(naphthalen-1-yl)-2-(trifluoromethyl)pyrazolo[1,5-a]pyrimidin-7(4H)-one]",patch clamp of α-hSlo-expressing HEK293T cells (Figure S1),"In HEK293T cells expressing α-hSlo, QO-40 stimulated BKCa channel activity."
